Measured values published in paper PMC4521925, “17β-Hydroxysteroid Dehydrogenase Type 2 Inhibition: Discovery of Selective and Metabolically Stable Compounds Inhibiting Both the Human Enzyme and Its Murine Ortholog” (PLoS ONE, 2015).

Tests used:
[1] = biological target: T1, m17β-HSD2 (Mus musculus, UniProt P51658); test: Inhibition of m17β-HSD2 in cell-free assay; assay type: biochemical; conditions: for inhibition at 1 µM: read-out: % inh. at 1 μM m17β-HSD2
T1 construct: The microsomal fraction (m17β-HSD2) was obtained from mouse liver as described for h17β-HSD2; tissue Pharmacelsus GmbH (mouse livers); host or cells: mouse liver, microsomal fraction
T1 sequence (P51658 1-381): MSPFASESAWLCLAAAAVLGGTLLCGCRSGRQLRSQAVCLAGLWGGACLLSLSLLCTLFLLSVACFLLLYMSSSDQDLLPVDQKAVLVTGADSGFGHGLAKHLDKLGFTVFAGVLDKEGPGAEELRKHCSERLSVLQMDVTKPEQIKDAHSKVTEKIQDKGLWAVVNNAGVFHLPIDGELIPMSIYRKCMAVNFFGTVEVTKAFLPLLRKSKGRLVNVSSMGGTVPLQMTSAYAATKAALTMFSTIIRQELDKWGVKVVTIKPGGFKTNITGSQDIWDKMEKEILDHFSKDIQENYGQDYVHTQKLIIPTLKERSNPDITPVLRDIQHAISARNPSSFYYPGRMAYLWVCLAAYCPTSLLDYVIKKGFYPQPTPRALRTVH
Experimental: (§1) h17β-HSD2, h17β-HSD1, m17β-HSD2 and m17β-HSD1 cell-free assays were performed similarly, by incubating enzyme, tritiated substrate, cofactor and inhibitor, according to described procedures.
The microsomal fraction (m17β-HSD2) was obtained from mouse liver as described for h17β-HSD2. Inhibitory activities were evaluated by a method identical to the one described for the human enzyme.
(§2) Inhibitory activities were evaluated following an established method with minor modifications. Briefly, the enzyme preparation was incubated with NAD^+ [1500 μM] in the presence of potential inhibitors at 37C in a phosphate buffer (50 mM) supplemented with 20% of glycerol and EDTA 1mM. Inhibitor stock solutions were prepared in DMSO. Final concentration of DMSO was adjusted to 1% in all samples. […] After 20 min, the incubation was stopped with HgCl2 and the mixture was extracted with ether. After evaporation, the steroids were dissolved in acetonitrile/water (45:55). […] Detection and quantification of the steroids were performed using a radioflow detector (Berthold Technologies, Bad Wildbad). […] Each value was calculated from at least two independent experiments.

[2] = biological target: T2, m17β-HSD1 (Mus musculus, UniProt P51656); test: Inhibition of m17β-HSD1 in cell-free assay; assay type: biochemical; conditions: recombinant m17β-HSD1, substrate E1 [500 nM], NADPH [500 μM]
T2 construct: host or cells: HEK 293 cells, transient transfection, 1000 g supernatant of the lysate
T2 sequence (P51656 1-344): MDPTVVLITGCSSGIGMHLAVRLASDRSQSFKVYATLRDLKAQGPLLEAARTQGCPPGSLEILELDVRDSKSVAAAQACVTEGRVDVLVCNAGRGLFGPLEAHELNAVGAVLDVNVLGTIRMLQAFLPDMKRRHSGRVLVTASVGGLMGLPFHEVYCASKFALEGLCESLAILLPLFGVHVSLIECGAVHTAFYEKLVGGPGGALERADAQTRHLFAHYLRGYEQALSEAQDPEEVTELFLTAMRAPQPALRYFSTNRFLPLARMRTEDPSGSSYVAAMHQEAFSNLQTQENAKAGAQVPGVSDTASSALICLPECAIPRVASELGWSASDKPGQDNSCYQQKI
Experimental: as §1
Recombinant m17β-HSD1 enzyme was produced by transfection of HEK 293 cells with a m17β-HSD1 expression plasmid (coding sequence of NM_010475 in pCMV6Entry vector, OriGene Technologies, Inc.) according to a described procedure. 48 hours after transfection cells were homogenized by sonication (3 x 10 s) in a buffer containing saccharose (40 mMTris, 250 mM saccharose, 5 mM EDTA, 7 mM DTT, 1 mM PMSF, pH 7,5). Cell lysate was centrifuged (1000 g, 15 min, 4°C) and 20% glycerol was added to the supernatant before aliquots were frozen and stored at -70°C.
(§3) The 17β-HSD1 inhibition assay was performed similarly to the h17β-HSD2 test. The human cytosolic enzyme was incubated with NADH [500 μM] while the mouse recombinant enzyme was reacted with NADPH [500 μM].Test compound and a mixture of unlabelled- and [^3H]-E1 (final concentration: 500 nM, 0.15 μCi) were added and mixed for 10 min at 37°C. Further treatment of the samples and HPLC separation was carried out as mentioned above for h17β-HSD2.

[3] = biological target: T3, h17β-HSD1 (Homo sapiens, UniProt P14061); test: Inhibition of h17β-HSD1 in cell-free assay; assay type: biochemical; conditions: human placental cytosolic fraction, substrate E1 [500 nM], cofactor NADH [500 μM]; for inhibition at 1 µM: read-out: % inh. at 1 μM h17β-HSD1
T3 construct: h17β-HSD1 was obtained after precipitation with ammonium sulfate from the cytosolic fraction; from tissue; host or cells: human placenta, cytosolic fraction
T3 sequence (P14061 1-328): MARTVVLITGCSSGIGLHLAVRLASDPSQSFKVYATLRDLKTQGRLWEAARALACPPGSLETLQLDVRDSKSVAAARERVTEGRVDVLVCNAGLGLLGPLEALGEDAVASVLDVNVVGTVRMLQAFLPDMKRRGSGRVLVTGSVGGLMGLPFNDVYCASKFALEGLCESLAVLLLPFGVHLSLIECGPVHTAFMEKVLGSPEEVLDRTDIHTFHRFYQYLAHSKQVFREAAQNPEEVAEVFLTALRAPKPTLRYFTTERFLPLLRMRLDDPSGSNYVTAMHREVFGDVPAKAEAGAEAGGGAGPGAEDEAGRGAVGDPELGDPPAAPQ
Experimental: as §1
(§4) Cytosolic (h17β-HSD1) and microsomal (h17β-HSD2) fractions were obtained from human placenta according to previously described procedures. Fresh tissue was homogenized and the enzymes were separated from the mitochondria, cell membrane. Nucleus and other rests by fractional centrifugation at 1000 g, 10.000 g and 150.000 g. The pellet fraction containing the microsomal h17β-HSD2 was used for the determination of h17β-HSD2 inhibition, while h17β-HSD1 was obtained after precipitation with ammonium sulfate from the cytosolic fraction for use of testing of h17β-HSD1 inhibition. Aliquots containing h17β-HSD1 or h17β-HSD2 were stored frozen.
as §3

[4] = biological target: T4, h17β-HSD2 (Homo sapiens, UniProt P37059); test: Inhibition of h17β-HSD2 in cell-free assay; assay type: biochemical; design: from tissue; host or cells: human placenta, microsomal fraction; conditions: for s.f. (selectivity factor) = IC50(17β-HSD1)/IC50(17β-HSD2): human enzymes, cell-free; for inhibition at 1 µM: read-out: % inh. at 1 μM h17β-HSD2
T4 sequence (P37059 1-387): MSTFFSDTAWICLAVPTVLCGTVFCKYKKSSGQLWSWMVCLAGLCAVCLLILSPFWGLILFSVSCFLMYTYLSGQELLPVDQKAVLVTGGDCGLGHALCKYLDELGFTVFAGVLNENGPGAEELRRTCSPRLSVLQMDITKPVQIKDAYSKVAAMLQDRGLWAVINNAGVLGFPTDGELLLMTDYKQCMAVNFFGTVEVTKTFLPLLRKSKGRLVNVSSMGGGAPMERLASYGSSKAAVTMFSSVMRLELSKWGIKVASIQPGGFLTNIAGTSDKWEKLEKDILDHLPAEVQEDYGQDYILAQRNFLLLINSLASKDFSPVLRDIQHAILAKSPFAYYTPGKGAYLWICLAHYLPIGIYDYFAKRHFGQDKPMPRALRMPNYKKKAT
Experimental: as §1, §4, §2

[5] = Metabolic stability in a cell-free assay (liver S9 fraction); assay type: in vitro ADME; conditions: pooled liver S9 fraction; human liver S9 fraction 1 mg/ml, NADPH regenerating system, UDPGA, PAPS, 37°C; inhibitor 1 μM; read-out: Inhibitor t1/2
Experimental: Compounds 7a, 8a, 16a, 19a, 22a, 27a and 27 were tested according to established method[33–35]For evaluation of phase I and II metabolic stability 1 μM compound was incubated with 1 mg/ml pooled mammalian liver S9 fraction (BD Gentest), 2 mM NADPH regenerating system, 1 mM UDPGA and 0.1 mM PAPS at 37°C for 0, 5, 15 and 60 minutes at a final volume of 100 μL. The incubation was stopped by precipitation of S9 enzymes with 2 volumes of cold acetonitrile containing internal standard. Concentration of the remaining test compound at the different time points was analyzed by LC-MS/MS and used to determine half-life (t1/2).

[6] = biological target: ERβ (Homo sapiens, UniProt Q92731); test: Estrogen receptor affinity in a cell-free assay (ERβ); assay type: binding; conditions: 1000-fold excess relative to E2; recombinant human ERβ
Experimental: (§5) The binding affinity of selected compounds to ERα and ERβ was determined according to the recommendations of the US Environmental Protection Agency (EPA) by their Endocrine Disruptor Screening Program (EDSP)[24] using recombinant human proteins.
(§6) The potential inhibitors were dissolved in DMSO (5% final concentration). […] After incubation, ligand-receptor complexes were selectively bound to hydroxyapatite (83.5 g/LinTE-buffer). The bound complex was washed three times and resuspended in ethanol. For radiodetection, scintillator cocktail (Quickszint 212, Zinsser Analytic, Frankfurt) was added and samples were measured in a liquid scintillation counter (1450 LSC & Luminescence Counter, Perkin Elmer).
(§7) After the assay was established and validated, a modification was made to increase throughput.

[7] = biological target: T5, ERα (Homo sapiens, UniProt P03372); test: Estrogen receptor affinity in a cell-free assay (ERα); assay type: binding; conditions: 1000-fold excess relative to E2; recombinant human ERα
T5 sequence (P03372 1-595): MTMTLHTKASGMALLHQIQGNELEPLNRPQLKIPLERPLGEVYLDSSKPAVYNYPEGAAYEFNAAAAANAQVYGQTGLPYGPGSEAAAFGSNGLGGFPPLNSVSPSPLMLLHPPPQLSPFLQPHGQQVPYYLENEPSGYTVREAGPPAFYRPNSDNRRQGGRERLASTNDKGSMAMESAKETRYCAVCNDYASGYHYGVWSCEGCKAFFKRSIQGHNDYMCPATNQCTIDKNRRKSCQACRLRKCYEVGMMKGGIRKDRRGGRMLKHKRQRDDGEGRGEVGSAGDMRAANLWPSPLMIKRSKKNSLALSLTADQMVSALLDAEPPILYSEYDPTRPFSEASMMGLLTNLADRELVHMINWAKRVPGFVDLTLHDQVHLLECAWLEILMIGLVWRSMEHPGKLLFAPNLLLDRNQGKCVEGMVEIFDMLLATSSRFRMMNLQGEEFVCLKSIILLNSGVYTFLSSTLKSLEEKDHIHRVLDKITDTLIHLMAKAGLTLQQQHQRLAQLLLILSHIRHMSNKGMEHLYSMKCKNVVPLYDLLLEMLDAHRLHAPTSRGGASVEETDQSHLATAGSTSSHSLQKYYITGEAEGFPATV
Experimental: as §5, §6, §7

ERβ, sequence (Q92731 whole entry): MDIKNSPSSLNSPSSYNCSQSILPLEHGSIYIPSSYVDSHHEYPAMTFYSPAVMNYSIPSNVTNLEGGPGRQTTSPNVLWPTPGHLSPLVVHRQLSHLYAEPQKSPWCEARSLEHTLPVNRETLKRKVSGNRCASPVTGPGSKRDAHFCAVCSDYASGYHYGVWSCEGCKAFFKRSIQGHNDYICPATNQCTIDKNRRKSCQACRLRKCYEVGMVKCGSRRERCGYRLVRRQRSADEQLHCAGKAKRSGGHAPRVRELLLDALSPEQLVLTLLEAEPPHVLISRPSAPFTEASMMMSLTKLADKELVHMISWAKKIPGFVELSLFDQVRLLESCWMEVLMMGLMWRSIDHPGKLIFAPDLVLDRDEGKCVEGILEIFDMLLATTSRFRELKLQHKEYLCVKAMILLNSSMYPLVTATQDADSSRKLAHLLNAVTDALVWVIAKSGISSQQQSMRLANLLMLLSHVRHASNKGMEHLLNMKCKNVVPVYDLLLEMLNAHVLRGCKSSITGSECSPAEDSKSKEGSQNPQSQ

Structure (SMILES) | inhibition at 1 µM [1] [%] | inhibition of m17β-HSD1 at 1 μM [2] | IC50 [3] [nM] | melting point [°C] | IC50 [4] [nM] | s.f. (selectivity factor) = IC50(17β-HSD1)/IC50(17β-HSD2) [4] | inhibition at 1 µM [3] [%] | half-life at 1 μM [5] [h] | inhibition at 1 µM [4] [%] | IC50 [1] [nM] | displacement of E2 from ERβ [6] [%] | displacement of E2 from ERα [7] [%]
Cc1cccc(N(C)C(=O)c2ccc(-c3ccc4c(c3)OCO4)cc2)c1 [Compound 23a, 4-(Benzo[d][1, 3]dioxol-5-yl)-N-methyl-N-(m-tolyl)benzamide] | 70 | None of the tested compounds showed any inhibition | 10900 | 111 to 113 | 560 | 20 | – | – | – | – | – | –
COc1ccc(-c2ccc(C(=O)N(C)c3cccc(OC)c3)cc2)cc1 [Compound 10a, 4'-Methoxy-N-(3-methoxyphenyl)-N-methyl-[1,1'-biphenyl]-4-carboxamide] | 66 | None of the tested compounds showed any inhibition | 27000 | 128 to 130 | 710 | 38 | – | – | – | – | – | –
COc1cccc(-c2ccc(C(=O)N(C)c3cccc(C)c3)cc2)c1 [Compound 5a, 3'-Methoxy-N-methyl-N-(m-tolyl)-[1,1'-biphenyl]-4-carboxamide] | 56 | – | – | – | – | – | < 10 | 1.93 | 44 | – | – | –
COc1cccc(N(C)C(=O)c2ccc(-c3cccc(Cl)c3)cc2)c1 [Compound 14a, 3'-Chloro-N-(3-methoxyphenyl)-N-methyl-[1,1'-biphenyl]-4-carboxamide] | 73 | None of the tested compounds showed any inhibition | 12600 | – | 950 | 13 | – | 1.37 | – | – | – | –
COc1cccc(N(C)C(=O)c2ccc(-c3cccc(C)c3F)cc2)c1 [Compound 20a, 2'-Fluoro-N-(3-methoxyphenyl)-N,3'-dimethyl-[1,1'-biphenyl]-4-carboxamide] | 48 | – | 11300 | 91 to 94 | 460 | 24 | – | 1.73 | – | – | – | –
COc1cccc(N(C)C(=O)c2ccc(-c3cccc(OC)c3F)cc2)c1 [Compound 19a, 2'-Fluoro-3'-methoxy-N-(3-methoxyphenyl)-N-methyl-[1,1'-biphenyl]-4-carboxamide] | 67 | None of the tested compounds showed any inhibition | – | 125 to 127 | – | – | 35 | – | 64 | – | – | –
COc1cccc(-c2ccc(C(=O)N(C)c3cccc(OC)c3)cc2)c1 [Compound 7a, 3'-Methoxy-N-(3-methoxyphenyl)-N-methyl-[1,1'-biphenyl]-4-carboxamide] | – | – | 6400 | 131 to 134 | 330 | 20 | – | – | – | 290 | ≤ 20 | ≤ 20
